Measurements: patent publication US12428422B2, “Purine derivatives as SIK-3 inhibitors” (RHIZEN PHARMACEUTICALS AG, priority 2020, dated 2025)

Experiments:
Assay type in all cases: cell-based
mouse IL-10 mRNA = assay: IL-10 mRNA expression in LPS-stimulated mouse bone marrow derived macrophages (real-time PCR); details: LPS (1 μg/ml) stimulated mouse BMDM; 1 μM Compound M1 vs 1 μM dasatinib (FIG. 2C)
Protocol: Assay 2: Evaluation of mRNA Expression Levels of IL-10, TNFα, and Arginase-1 in LPS-Stimulated (1 μg/ml) Mouse Bone Marrow Derived Macrophages (BMDM).
Mouse-Bone Marrow Cell Isolation
• Femur bones from healthy mice were collected taking all aseptic precautions. • Bones were severed proximal to each joint using sterile scissors. • A 10 ml syringe with 25-G needle was filled with cold sterile wash medium (DMEM/F12 medium+10% FBS (fetal bovine serum)+1% Penicillin-streptomycin). • The needle was inserted into bone marrow cavity of femur and the cavity was flushed with 2-5 mL of wash medium, until the bone cavity appeared white. • Wash medium was collected in a 50 mL tube and centrifuged at 500×g for 10 minutes at room temperature. • Cells were resuspended in DMEM/F12 medium and cell count was taken. […]
Fold change in the mRNA expression was calculated by 2^−ΔΔCt method and data was plotted using GraphPad Prism.

MV-4-11 cell lines = assay: MTT cell growth inhibition, single agent or combination, MV-4-11; details: combined with azacytidine or ventoclax, 72 hrs
Protocol: Assay 4: Compound M1 as a Single Agent or in Combination with Azacytidine, or Venetoclax was Determined in the AML Lines: THP-1, U937, and MV-4-11.
Day 0 • The cells were pelleted and counted. • Cells were plated at desired density (100 μl/well) in complete media in a 96-well plate in triplicates. A column for Day “0” reading was also seeded (18-20 hrs after initial plating and before addition of the inhibitors) • Plates were incubated at 37° C. and 5% CO2. Day 1 • 10 μl of MTT (5 mg/ml) were added to the column designated for Day “0”. It was mixed well and incubated at 37° C. and 5% CO2 for 3.5 h. Cells were pelleted down at 4000 rpm for 10 minutes. • Media was aspirated out and 150 μl of DMSO were added to the cells and mixed by pipetting to dissolve the crystals • Plate was read at A560 nm and A640 nm. […] Crystals were dissolved by repeated pipetting. • The plate was read at A560 nm and A640 nm. […]
Reference absorbance values were subtracted from test absorbance values. Day 0 values were subtracted from final day absorbance values for determining cell growth. Percent cell growth inhibitions were calculated.

ZR.75.1 cell lines = assay: MTT cell growth inhibition, combination with taxol, ZR.75.1; details: combined with taxol, 72 hrs
Protocol: Assay 6: Combination of Compound M1 with Standard Agents in Different Cell Lines
Day 0 • The cells were pelleted and counted. • Cells were plated at desired density (100 μl/well) in complete media in a 96-well plate in triplicates. A column for Day “0” reading was also seeded. (18-20 hrs after initial plating and before addition of the inhibitors) • Plates were incubated at 37° C. and 5% CO2. Day 1 • 10 μl of MTT (5 mg/ml) were added to the column designated for Day “0”. It was mixed well and incubated at 37° C. and 5% CO2 for 3.5 h. Cells were pelleted down at 4000 rpm for 10 minutes. • Media was aspirated out and 150 μl of DMSO were added to the cells and mixed by pipetting to dissolve the crystals • The plate was read at A560 nm and A640 nm. Day 2 • A series of dilutions of the inhibitors were initially made in 100% DMSO and further diluted in growth medium. • Cells were treated with either single agent of DMSO, compound M1, taxol, and a combination of compound M1 and taxol (MDA-MB-231, MCF-7, ZR.75.1 and SK-OV-3). […] Crystals were dissolved by repeated pipetting. • The plate was read at A560 nm and A640 nm. […]
Reference absorbance values were subtracted from test absorbance values. Day 0 values were subtracted from final day absorbance values for determining cell growth. % Cell growth inhibitions were calculated.

With CC[C@H](Nc1ncnc2[nH]c(O)nc12)c1oc2ccccc2c(=O)c1-c1cccc(F)c1 [Compound M1, (S)-3-(3-fluorophenyl)-2-(1-((8-hydroxy-9H-purin-6-yl)amino)propyl)-4H-chromen-4-one] the “mouse IL-10 mRNA expression, potency relative to dasatinib” value (mouse IL-10 mRNA) was “equally potent as dasatinib”, the “cell growth inhibition in combination” value (MV-4-11 cell lines) was “synergistic activity” and the “cell growth inhibition in combination” value (ZR.75.1 cell lines) was “synergistic results”.
